ChEMBL document CHEMBL5331106, “Investigation into the Mechanism of Action of the Tuberculosis Drug Candidate SQ109 and Its Metabolites and Analogues in Mycobacteria” (J Med Chem, 2023)

Key:
[1] = tested on: Mycobacterium tuberculosis; assay: Antimycobacterial activity against Mycobacterium tuberculosis HN878 assessed as inhibition of mycobacterial growth incubated for 5 days; assay type: functional, organism-based; settings: HN878, 120 h
[2] = tested on: Mycolicibacterium smegmatis; assay: Antimycobacterial activity against Mycobacterium smegmatis assessed as inhibition of mycobacterial growth incubated for 48 hrs in presence of 50 uM undecaprenyl phosphate; assay type: functional, organism-based
[3] = tested on: Mycolicibacterium smegmatis; assay: Rescue fold, ratio of IC50 for antimycobacterial activity against Mycobacterium smegmatis in presence of 50 uM undecaprenyl phosphate to IC50 for antimycobacterial activity against Mycobacterium smegmatis; assay type: functional
[4] = tested on: Mycobacterium tuberculosis; assay: Antimycobacterial activity against Mycobacterium tuberculosis HN878 assessed as inhibition of mycobacterial growth incubated for 5 days in presence of 50 uM undecaprenyl phosphate; assay type: functional, organism-based; settings: HN878, 120 h
[5] = target: T1, Undecaprenyl-diphosphatase (Escherichia coli (strain K12), UniProt P60932); assay: Inhibition of UppP in Escherichia coli using FPP as substrate pretreated for 20 mins followed by FPP addition and measured after 60 mins by malachite green based assay
T1 sequence (P60932 whole entry): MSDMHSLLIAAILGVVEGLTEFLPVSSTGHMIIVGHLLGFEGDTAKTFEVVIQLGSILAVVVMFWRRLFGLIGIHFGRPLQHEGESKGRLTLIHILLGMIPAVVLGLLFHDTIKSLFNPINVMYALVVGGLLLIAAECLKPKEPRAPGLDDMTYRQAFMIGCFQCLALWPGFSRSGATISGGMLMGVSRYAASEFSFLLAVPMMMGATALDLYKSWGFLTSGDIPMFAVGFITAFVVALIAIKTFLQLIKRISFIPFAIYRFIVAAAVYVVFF

Cell membrane = assay: Uncoupling activity in Escherichia coli inverted membrane vesicles assessed as collapse of pH gradient by measuring increase in ACMA fluorescence intensity by fluorometric analysis; assay type: subcellular
[6] = tested on: Mycolicibacterium smegmatis; assay: Antimycobacterial activity against Mycobacterium smegmatis assessed as inhibition of mycobacterial growth incubated for 48 hrs; assay type: functional, organism-based
[7] = tested on: Mycolicibacterium smegmatis; assay: Antimycobacterial activity against Mycobacterium smegmatis assessed as inhibition of mycobacterial growth incubated for 48 hrs in presence of 50 uM menaquinone-4; assay type: functional, organism-based
[8] = tested on: Mycolicibacterium smegmatis; assay: Antimycobacterial activity against Mycobacterium smegmatis assessed as inhibition of mycobacterial growth incubated for 48 hrs in presence of 50 uM Upp; assay type: functional, organism-based

SMILES	IC50 [1] [µM]	IC50 [2] [µM]	Ratio IC50 [3]	IC50 [4] [µM]	IC50 [5] [µM]	IC50 (Cell membrane) [µM]	IC50 [6] [µM]	IC50 [7] [µM]	IC50 [8] [µM]
CC(C)CCCC(C)CCNCCNC1C2CC3CC(C2)CC1C3 (centres undefined)	1.7	9.1	1	16	15	5.2	9.3	–	–
NC1C2CC3CC(C2)CC1C3 (centres undefined)	> 25	–	–	–	–	> 1000	> 500	–	–
CC(C)=CCC/C(C)=C/CNCCNC1C2CC3CC1CC(O)(C3)C2 (centres undefined)	> 25	57	1.4	–	–	18	42	–	–
CC(C)=CCC/C(C)=C/CNCCNC1C2CC3CC(C2)CC1(O)C3 (centres undefined)	0.81	15	3	–	–	9.1	5	–	–
CC(C)=CCC/C(C)=C/C(=O)O	> 25	–	–	–	–	> 1000	> 500	–	–
CCCCc1ccc(-c2nc(C)c(/C(C)=N/NC(=N)N)s2)cc1	–	89	7.8	–	–	–	11	9.8	–
O=C1C2CC3CC(C2)CC1C3	> 25	–	–	–	–	> 1000	> 500	–	–
CC(C)=CCC/C(C)=C/CNCCOC1C2CC3CC(C2)CC1C3 (centres undefined)	0.07	11	9	0.54	21	1.2	1.3	–	–
CC(C)=CCC/C(C)=C/COCCNC1C2CC3CC(C2)CC1C3 (centres undefined)	1.3	9.8	1.3	2.8	91	55	7.3	–	–
CC(C)=CCCC1(C)CC=NO1 (centres undefined)	> 25	–	–	–	–	> 1000	> 500	–	–
CC(C)=CCC/C(C)=C/CNCCNC1[C@H]2C[C@@H]3C[C@H](C2)[C@@H](O)[C@H]1C3 (some centres undefined)	4.2	24	2.2	–	–	12	11	–	–
CC(C)=CCC/C(C)=C/C(C)(C)NCCNC1C2CC3CC(C2)CC1C3 (centres undefined)	0.61	43	23	8.7	37	1.1	1.9	–	–
CC(C)=CCC/C(C)=C/CN	> 25	–	–	–	–	307	> 500	–	–
c1ccc(CCNC2CCCc3c2[nH]c2ccc(C4CCCCC4)cc32)cc1 (centres undefined)	–	56	–	–	–	–	14	–	14
CC(C)=CCC/C(C)=C/CCNCCNC1C2CC3CC1CC(F)(C3)C2 (centres undefined)	1.5	38	4.8	8.8	153	5.5	8	–	–
C/C(=C\CNCCNC1C2CC3CC(C2)CC1C3)CCC(=O)C(C)C (centres undefined)	14	63	2.4	–	–	15	26	–	–
ON=C1C2CC3CC(C2)CC1C3	> 25	–	–	–	–	> 1000	> 500	–	–
CC(C)=CCC/C(C)=C/CNCCNC1C2CC3CC1CC(C2)C3O (centres undefined)	> 25	67	1.6	–	–	19	42	–	–
CCCCCCCCCCCNCCNC1C2CC3CC(C2)CC1C3 (centres undefined)	1.9	8.9	2.3	24	18	0.87	3.9	–	–
NCCNC1C2CC3CC(C2)CC1C3 (centres undefined)	> 25	–	–	–	–	130	> 500	–	–
CC(C)=CCC/C(C)=C/CNCCN	> 25	–	–	–	–	77	> 500	–	–
CC(C)=CCC/C(C)=C/C=N\O	> 25	–	–	–	–	> 1000	> 500	–	–
C/C(=C\CC/C(C)=C/CNCCNC1C2CC3CC(C2)CC1C3)CO (centres undefined)	> 16	24	1.2	–	–	17	20	–	–
CC(C)=CCC/C(C)=C/C=O [CITRAL]	> 25	–	–	–	–	> 1000	> 500	–	–
